According to patent publication US20220324835A1 (Nurix Therapeutics, Inc., priority 2018, published 2022):
Counter-ions that a name gives are not always drawn.

What was measured:
Cbl-b [1] = biological target: T1, Cbl-b (Homo sapiens, UniProt Q13191); experiment: Cbl-b inhibition assay (Cbl-b activity assay, FRET, Biological Example 1; 100 mM NaCl, 60 nM Src kinase); type: biochemical; details: upper bound stated in text lists; read-out: IC50 values in the Cbl-b inhibition assay of Biological Example 1
T1 sequence (Q13191 36-427): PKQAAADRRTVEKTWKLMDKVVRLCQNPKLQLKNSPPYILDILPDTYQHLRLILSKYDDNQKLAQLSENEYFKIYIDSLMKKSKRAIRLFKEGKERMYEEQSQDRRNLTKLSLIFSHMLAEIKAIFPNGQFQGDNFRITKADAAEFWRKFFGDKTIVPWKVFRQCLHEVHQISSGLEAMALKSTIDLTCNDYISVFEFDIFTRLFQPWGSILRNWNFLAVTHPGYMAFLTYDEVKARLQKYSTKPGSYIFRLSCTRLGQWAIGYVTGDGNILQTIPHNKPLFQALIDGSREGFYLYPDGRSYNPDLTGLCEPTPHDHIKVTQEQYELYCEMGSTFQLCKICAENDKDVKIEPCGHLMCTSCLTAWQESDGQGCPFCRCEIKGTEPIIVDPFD
In short: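 Here, the E2 UbcH5B, irreversibly linked to Bodipy-fluorescein ubiquitin, binds Cbl-b once Src kinase phosphorylates it; Cbl-b carries an N-terminal biotinylated Avi-tag captured by streptavidin-terbium. An absent FRET signal indicates inhibition.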

T-cell [2] = experiment: IL-2 secretion from T-cells co-stimulated with anti-CD3 and anti-CD28 antibody (Biological Example 2); type: cell-based, human; details: Homo sapiens, T-cell, fold change over baseline, primary human total T-cells, read-out: IL-2 secretion Anti-CD3/Anti-CD28 stimulation; for fold induction at 0.3 µM: 0.3 μM Cbl-b inhibitor; for fold induction at 1 µM: 1 μM Cbl-b inhibitor; for fold induction at 4 µM: 4 μM Cbl-b inhibitor
In short: (§1)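 No assay protocol given; T-cells stimulated with anti-CD3 alone or anti-CD3 plus anti-CD28, with or without Cbl-b inhibitor. Activation read as IL-2 secretion or CD25 surface staining, expressed as fold over baseline from uninhibited cells […].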

T-cell [3] = experiment: IL-2 secretion from T-cells stimulated with anti-CD3 antibody alone (Biological Example 2); type: cell-based, human; details: T-cell, fold change over baseline, primary human total T-cells, read-out: IL-2 secretion Anti-CD3 stimulation; for fold induction at 1 µM: 1 μM Cbl-b inhibitor; for fold induction at 8 µM: 8 μM Cbl-b inhibitor
T-cell [4] = experiment: CD25 cell surface staining on T-cells co-stimulated with anti-CD3 and anti-CD28 antibody (Biological Example 2); type: cell-based, human; details: Homo sapiens, T-cell, fold change over baseline, primary human total T-cells, read-out: CD25 staining Anti-CD3/Anti-CD28 stimulation; for fold induction at 0.3 µM: 0.3 μM Cbl-b inhibitor; for fold induction at 1 µM: 1 μM Cbl-b inhibitor; for fold induction at 4 µM: 4 μM Cbl-b inhibitor
In short: as §1

Cbl-b [5] = biological target: T1, Cbl-b; experiment: Cbl-b activity assay (Cbl-b inhibition assay), TR-FRET of Cbl-b interaction with UbcH5B-Ub; type: biochemical; details: assay buffer with 100 mM NaCl, 60 nM Src kinase; read-out: Cbl-b activity IC50
In short: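 TR-FRET readout of Cbl-b binding to Bodipy-fluorescein N-terminally labeled Ub conjugated to UbcH5B C85K, measured with compound present. After compound incubation, 60 nM Src kinase with 1 mM ATP and 5 mM MgCl2 (final) was added for 1.5 h, then a further 1 h incubation; asterisked values used 50 mM NaCl buffer and 30 nM Src.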

| Compound | IC50 (Cbl-b [1]) [nM] | fold induction at 0.3 µM (T-cell [2]) | fold induction at 1 µM (T-cell [2]) | fold induction at 4 µM (T-cell [2]) | fold induction at 1 µM (T-cell [3]) | fold induction at 8 µM (T-cell [3]) | fold induction at 0.3 µM (T-cell [4]) | fold induction at 1 µM (T-cell [4]) | fold induction at 4 µM (T-cell [4]) | IC50 (Cbl-b [5]) [nM] |
| --- | --- | --- | --- | --- | --- | --- | --- | --- | --- | --- |
| C[C@H](Cc1nncn1C)c1cccc(NC(=O)c2ccc(CO)c(C3CC3)n2)c1 [Compound 203, 6-cyclopropyl-5-(hydroxymethyl)-N-[3-[(2R)-1-(4-methyl-4H-1,2,4-triazol-3-yl)propan-2-yl]phenyl]pyridine-2-carboxamide] | ≤ 100 | > 7.5 | > 7.5 | > 7.5 | > 0.201 | > 0.201 | 1.31 to 1.5 | 1.51 to 1.75 | 1.51 to 1.75 | < 100 |
| CC(=O)N1CCN(c2ccc3cnc(C(=O)Nc4cccc([C@H](C)Cc5nncn5C)c4)cc3c2)CC1 [Compound 211, (R)-6-(4-acetylpiperazin-1-yl)-N-(3-(1-(4-methyl-4H-1,2,4-triazol-3-yl)propan-2-yl)phenyl)isoquinoline-3-carboxamide 2,2,2-trifluoroacetate] | ≤ 100 | 2.51 to 5 | 5 to 7.5 | > 7.5 | > 0.201 | > 0.201 | 1.01 to 1.3 | 1.01 to 1.3 | 1.51 to 1.75 | < 100 |
| C[C@H](Cc1nncn1C)c1cccc(NC(=O)c2cc(C(=O)N3CC[C@H](O)C3)cc(C(F)(F)F)n2)c1 [Compound 220, 4-((S)-3-hydroxypyrrolidine-1-carbonyl)-N-(3-((R)-1-(4-methyl-4H-1,2,4-triazol-3-yl)propan-2-yl)phenyl)-6-(trifluoromethyl)picolinamide] | ≤ 100 | 2.51 to 5 | > 7.5 | > 7.5 | > 0.201 | > 0.201 | 1.31 to 1.5 | 1.51 to 1.75 | > 1.76 | < 100 |
| C[C@H](Cc1nncn1C)c1cccc(N2Cc3c(cccc3C(F)(F)F)C2=O)c1 [Compound 255a, (R)-2-(3-(1-(4-methyl-4H-1,2,4-triazol-3-yl)propan-2-yl)phenyl)-4-(trifluoromethyl)isoindolin-1-one] | ≤ 100 | 1.01 to 2.5 | 2.51 to 5 | 5 to 7.5 | 0.051 to 0.1 | > 0.201 | 1.31 to 1.5 | 1.51 to 1.75 | > 1.76 | < 100 |
| C[C@H](Cc1nncn1C)c1cccc(N2Cc3c(cc(C(=O)N4CC[C@H](O)C4)cc3C(F)(F)F)C2=O)c1 [Compound 274, 6-((S)-3-hydroxypyrrolidine-1-carbonyl)-2-(3-((R)-1-(4-methyl-4H-1,2,4-triazol-3-yl)propan-2-yl)phenyl)-4-(trifluoromethyl)isoindolin-1-one] | ≤ 100 | 1.01 to 2.5 | 2.51 to 5 | > 7.5 | 0.151 to 0.2 | > 0.201 | 1.01 to 1.3 | 1.01 to 1.3 | 1.31 to 1.5 | < 100 |
| C[C@H](Cc1nncn1C)c1cccc(N2Cc3c(cc(C(=O)N4C[C@@H](O)C[C@H]4C)cc3C(F)(F)F)C2=O)c1 [Compound 275, 6-((2R,4S)-4-hydroxy-2-methylpyrrolidine-1-carbonyl)-2-(3-((R)-1-(4-methyl-4H-1,2,4-triazol-3-yl)propan-2-yl)phenyl)-4-(trifluoromethyl)isoindolin-1-one] | ≤ 100 | 2.51 to 5 | 5 to 7.5 | > 7.5 | > 0.201 | > 0.201 | 1.31 to 1.5 | 1.51 to 1.75 | > 1.76 | < 100 |
| C[C@H](Cc1nncn1C)c1cccc(N2Cc3c(cc(C(=O)N4CC(O)C4)cc3C(F)(F)F)C2=O)c1 [Compound 276, (R)-6-(3-hydroxyazetidine-1-carbonyl)-2-(3-(1-(4-methyl-4H-1,2,4-triazol-3-yl)propan-2-yl)phenyl)-4-(trifluoromethyl)isoindolin-1-one] | ≤ 100 | 1.01 to 2.5 | 2.51 to 5 | > 7.5 | 0.051 to 0.1 | 0.151 to 0.2 | 1.01 to 1.3 | 1.01 to 1.3 | 1.31 to 1.5 | < 100 |
| C[C@H](Cc1nncn1C)c1cccc(N2Cc3c(cc(C(=O)N4CC[C@H](O)C4)cc3C3CC3)C2=O)c1 [Compound 277, 4-cyclopropyl-6-((S)-3-hydroxypyrrolidine-1-carbonyl)-2-(3-((R)-1-(4-methyl-4H-1,2,4-triazol-3-yl)propan-2-yl)phenyl)isoindolin-1-one] | ≤ 100 | 1.01 to 2.5 | 2.51 to 5 | 2.51 to 5 | 0.051 to 0.1 | 0.101 to 0.15 | 1.01 to 1.3 | 1.01 to 1.3 | 1.31 to 1.5 | < 100 |
| Cn1cnnc1CC1(c2cccc(N3Cc4c(cccc4C(F)(F)F)C3=O)c2)CC1 [Compound 299, 2-(3-(1-((4-methyl-4H-1,2,4-triazol-3-yl)methyl)cyclopropyl)phenyl)-4-(trifluoromethyl)isoindolin-1-one] | ≤ 100 | 2.51 to 5 | 2.51 to 5 | 5 to 7.5 | 0.051 to 0.1 | > 0.201 | < 1 | 1.01 to 1.3 | 1.01 to 1.3 | < 100 |
| Cn1cnnc1CC(C)(C)c1cccc(N2Cc3c(cccc3C(F)(F)F)C2=O)c1 [Compound 300, 2-(3-(2-methyl-1-(4-methyl-4H-1,2,4-triazol-3-yl)propan-2-yl)phenyl)-4-(trifluoromethyl)isoindolin-1-one] | ≤ 100 | 1.01 to 2.5 | 2.51 to 5 | > 7.5 | > 0.201 | > 0.201 | 1.01 to 1.3 | 1.01 to 1.3 | 1.51 to 1.75 | < 100 |
| Cn1cnnc1CC1(c2cccc(N3Cc4c(cccc4C(F)(F)F)C3=O)c2)COC1 [Compound 301, 2-[3-[3-[(4-methyl-1,2,4-triazol-3-yl)methyl]oxetan-3-yl]phenyl]-4-(trifluoromethyl)isoindolin-1-one] | ≤ 100 | 1.01 to 2.5 | 2.51 to 5 | > 7.5 | 0.051 to 0.1 | 0.101 to 0.15 | 1.01 to 1.3 | 1.01 to 1.3 | 1.31 to 1.5 | < 100 |
| C[C@H](Sc1nncn1C)c1cccc(NC(=O)c2cc3cc(OCC(=O)NCCN)ccc3cn2)c1 [Compound 311, 6-[2-(2-aminoethylamino)-2-oxo-ethoxy]-N-[3-[(1S)-1-[(4-methyl-1,2,4-triazol-3-yl)sulfanyl]ethyl]phenyl]isoquinoline-3-carboxamide hydrochloride] | ≤ 300 | < 1 | < 1 | 1.01 to 2.5 | < 0.05 | < 0.05 | < 1 | < 1 | 1.01 to 1.3 | 100 to 300 |
